Measurements reported in patent publication US20080141384A1, “Composition For Screening Anti-Hypertension Drug Comprising Mammal Tctp Gene or Its Protein Product, and Method For Screening Anti-Hypertension Drug Using Said Composition” (EWHA UNIVERSITY INDUSTRY COLLABORATION FOUNDATION, priority 2003, published 2008).

Legend:
Na/K-ATPase pump = assay: cell-based or functional assay
Na/K APTase pump [1] = assay: FACS analysis of intracellular Na+ using a Na-sensitive dye; type: cell-based; conditions: FACS with Na-sensitive dye, versus control group (Mock); FIG. 1b
Experimental: To confirm the above results again, FACS analysis was performed using a Na-sensitive dye.

Na/K APTase pump [2] = assay: Na/K APTase pump activity by 86Rb+ uptake in RBL-2H3 cells; type: cell-based; conditions: 10-20 μg/ml TCTP added, 86Rb+ tracer, versus control without TCTP, FIG. 1a
Experimental: The Na/K APTase pump inhibitory activity of the TCTP protein contained in the inventive composition was examined. As it was already known that TCTP interacts with the Na/K APTase pump, a test was performed to examine if the interaction has any effect on the activity of the Na/K APTase pump inhibitory activity.
RBL-2H3 cells were cultured at a suitable density and washed three times with Krebs-Ringer buffer (KRP, 140 mM NaCl, 5 mM KCl, 10 mM Na2HPO4, 1 mM MgSO4, 1.4 mM CaCl2, 2.5 mM glucose, pH 7.4). Subsequently, the cells were incubated at 37° C. for 15 minutes, and added with 0.1% BSA-containing KRP buffer containing 1 mM ouabain.
To measure the transport of K^+ ions caused by the Na/K APTase pump, cultivation was performed for 5-10 minutes using an ^86Rb^+([…], NEN) tracer having high sensitivity to ouabain, and 10-20 μg/ml TCTP was added. Also, a control group to which TCTP had not been added was prepared.

activity of the Na/K APTase pump (ouabain-sensitive 86Rb+ uptake in RBL-2H3 cells, 10-20 ug/ml TCTP against a control without TCTP) (Na/K-ATPase pump) [%] | Substance | intracellular Na+ concentration (Na/K APTase pump [1]) | activity of the Na/K APTase pump (reduced to) (Na/K APTase pump [2]) [%]
53.5 | Translationally controlled tumor protein (TCTP) (from UniProt P13693 1-172) |  | 
 | TCTP: Translationally controlled tumor protein (IgE-dependent histamine-releasing factor), amino acid sequence of SEQ ID NO: 2; cytoplasmic inhibitor of the Na/K-ATPase pump | increased the intracellular Na^+ concentration | 53.5
